Test results taken from US11752095B2, “Medroxyprogesterone acetate injectable compositions and methods of use” (Family Health International, priority 2018, dated 2023).
Where two headings read alike, the source gives them in different places.

Assay: Pharmacokinetics in women (Example 23)
Type: in vivo
Conditions: composition with 400 mg/ml MPA; for Cmax / half-life / Tmax / concentration at 28 day / concentration at 91 day / concentration at 182 day: female, human, in vivo
Description: 12 women were sequentially administered medroxyprogesterone acetate. PK was evaluated for at least 182 days. The composition tested was an embodiment of the disclosure and included 400 mg/ml MPA,

## CC(=O)O[C@]1(C(C)=O)CC[C@H]2[C@@H]3C[C@H](C)C4=CC(=O)CC[C@]4(C)[C@H]3CC[C@@]21C [medroxyprogesterone acetate]
N 6
  AUC0-28, Mean: 9.84 ng·days/mL
  AUC0-28, Median: 9.31 ng·days/mL
  AUC0-28, Min-Max: 7.83 to 14.52 ng·days/mL
  AUC0-91, Mean: 34.52 ng·days/mL
  AUC0-91, Median: 34.87 ng·days/mL
  AUC0-91, Min-Max: 23.41 to 44.06 ng·days/mL
  AUC0-182, Mean: 60.21 ng·days/mL
  AUC0-182, Median: 60.28 ng·days/mL
  AUC0-182, Min-Max: 38.62 to 84.88 ng·days/mL
N 6, read-out: Cmax, Mean
  Cmax: 0.53 ng/mL
N 6, read-out: Cmax, Median
  Cmax: 0.55 ng/mL
N 6, read-out: Cmax, Min-Max
  Cmax: 0.42 to 0.69 ng/mL
N 6, read-out: Half-life, Mean (converted)
  half-life: 99.4 days
N 6, read-out: Half-life, Median (converted)
  half-life: 104 days
N 6, read-out: Half-life, Min-Max
  half-life: 22.9 to 166 days
N 6, read-out: Tmax, Mean (converted)
  Tmax: 17.4 days
N 6, read-out: Tmax, Median (converted)
  Tmax: 9.49 days
Day 28, N 6, read-out: C28, Mean
  concentration at 28 day: 0.36 ng/mL
Day 28, N 6, read-out: C28, Median
  concentration at 28 day: 0.36 ng/mL
Day 28, N 6, read-out: C28, Min-Max
  concentration at 28 day: 0.03 to 0.5 ng/mL
Day 91, N 6, read-out: C91, Mean
  concentration at 91 day: 0.41 ng/mL
Day 91, N 6, read-out: C91, Median
  concentration at 91 day: 0.41 ng/mL
Day 91, N 6, read-out: C91, Min-Max
  concentration at 91 day: 0.26 to 0.63 ng/mL
Day 182, N 6, read-out: C182, Mean
  concentration at 182 day: 0.22 ng/mL
Day 182, N 6, read-out: C182, Median
  concentration at 182 day: 0.22 ng/mL
Day 182, N 6, read-out: C182, Min-Max
  concentration at 182 day: 0.14 to 0.34 ng/mL
